Laboratory results as given in ChEMBL document CHEMBL2163339, “Discovery of potent inhibitors of human and mouse fatty acid amide hydrolases” (J Med Chem, 2012).
The source made the active and inactive calls.

Test system: Mus musculus
Assay: Toxicity against CD1 mouse assessed as limbic/striatal stereotypies at 100 mg/kg, po at 60 mins by Irwin test
Type: organism-based
Parameters: dose 100 mg/kg, route oral
Conditions: in vivo, 1 h

SMILES	Activity
C#CCCCCCCCCCNC(=O)Oc1cccc(-n2ccc(C(N)=O)c2)c1	Toxic
NC(=O)c1ccn(-c2cccc(OC(=O)NCCCCCCc3ccccc3)c2)c1	Toxic

Test system: Mus musculus
Assay: Anxiolytic activity in mouse at 30 mg/kg, po measured for 5 mins by elevated plus maze test
Type: organism-based
Parameters: dose 30 mg/kg, route oral
Conditions: in vivo

SMILES	Activity
C#CCCCCCCCCCNC(=O)Oc1cccc(-n2ccc(C(N)=O)c2)c1	Non-toxic
NC(=O)c1ccn(-c2cccc(OC(=O)NCCCCCCc3ccccc3)c2)c1	Non-toxic

Test system: Mus musculus
Assay: Anxiolytic activity in mouse at 3 mg/kg, po measured for 5 mins by elevated plus maze test
Type: organism-based
Parameters: dose 3 mg/kg, route oral
Conditions: in vivo

SMILES	Activity
C#CCCCCCCCCCNC(=O)Oc1cccc(-n2ccc(C(N)=O)c2)c1	Non-toxic
NC(=O)c1ccn(-c2cccc(OC(=O)NCCCCCCc3ccccc3)c2)c1	Non-toxic

Target: T1, Fatty-acid amide hydrolase 1 (Mus musculus) (UniProt O08914)
T1 sequence (whole entry): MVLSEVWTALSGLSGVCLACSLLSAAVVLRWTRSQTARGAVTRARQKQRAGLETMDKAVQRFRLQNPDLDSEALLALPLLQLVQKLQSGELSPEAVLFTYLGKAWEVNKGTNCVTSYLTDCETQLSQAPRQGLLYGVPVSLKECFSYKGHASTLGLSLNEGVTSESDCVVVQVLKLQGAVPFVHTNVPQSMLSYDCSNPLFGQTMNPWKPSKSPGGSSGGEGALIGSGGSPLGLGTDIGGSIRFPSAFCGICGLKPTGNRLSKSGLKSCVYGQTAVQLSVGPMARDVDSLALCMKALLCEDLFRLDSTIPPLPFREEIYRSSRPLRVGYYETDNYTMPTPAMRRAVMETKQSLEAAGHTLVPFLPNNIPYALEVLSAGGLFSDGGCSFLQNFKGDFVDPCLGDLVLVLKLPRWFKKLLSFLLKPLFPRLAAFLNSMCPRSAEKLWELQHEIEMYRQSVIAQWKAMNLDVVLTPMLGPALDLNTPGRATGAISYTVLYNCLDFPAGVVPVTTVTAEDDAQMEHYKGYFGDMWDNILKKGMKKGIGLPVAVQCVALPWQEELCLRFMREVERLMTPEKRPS
Assay: Non-competitive inhibition of mouse FAAH isolated from brain homogenate using [3H-ethanolamine]AEA as substrate by Lineweaver-Burk plot analysis
Conditions: not given

SMILES	inhibition
NC(=O)c1ccn(-c2cccc(OC(=O)NCCCCCCc3ccccc3)c2)c1	Active
Cc1cc(C(N)=O)c(-c2cccc(OC(=O)NCCCCCCc3ccccc3)c2)s1	Active

Test system: Rattus norvegicus
Assay: Analgesic activity in rat assessed as increase in paw withdrawal threshold at 100 mg/kg, po
Type: functional, organism-based
Parameters: dose 100 mg/kg
Conditions: not given

SMILES	Activity
C#CCCCCCCCCCNC(=O)Oc1cccc(-n2ccc(C(N)=O)c2)c1	Active
NC(=O)c1ccn(-c2cccc(OC(=O)NCCCCCCc3ccccc3)c2)c1	Active

Test system: Mus musculus
Assay: Toxicity against CD1 mouse assessed as limbic/striatal stereotypies at 10 mg/kg, po at 240 mins by Irwin test
Type: organism-based
Parameters: dose 10 mg/kg, route oral
Conditions: in vivo, 4 h

SMILES	Activity
C#CCCCCCCCCCNC(=O)Oc1cccc(-n2ccc(C(N)=O)c2)c1	Non-toxic
NC(=O)c1ccn(-c2cccc(OC(=O)NCCCCCCc3ccccc3)c2)c1	Toxic

Target: T2, Monoglyceride lipase (Mus musculus) (UniProt O35678)
T2 sequence (whole entry): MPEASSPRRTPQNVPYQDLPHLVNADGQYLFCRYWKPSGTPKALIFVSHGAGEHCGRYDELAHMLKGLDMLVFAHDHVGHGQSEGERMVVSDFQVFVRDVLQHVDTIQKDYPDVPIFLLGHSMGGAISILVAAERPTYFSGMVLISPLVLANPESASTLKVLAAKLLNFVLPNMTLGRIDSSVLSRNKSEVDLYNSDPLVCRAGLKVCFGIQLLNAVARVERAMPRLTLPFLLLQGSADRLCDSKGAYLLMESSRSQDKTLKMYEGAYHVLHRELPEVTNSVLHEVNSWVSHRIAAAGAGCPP
Assay: Inhibition of MAGL-mediated 2AG hydrolysis in mouse brain homogenate using [3H]2OG as substrate incubated for 20 mins prior to substrate addition
Type: tissue-based
Conditions: not given

SMILES	inhibition
C#CCCCCCCCCCNC(=O)Oc1cccc(-n2ccc(C(N)=O)c2)c1	inactive
NC(=O)c1ccn(-c2cccc(OC(=O)NCCCCCCc3ccccc3)c2)c1	inactive
Cc1cc(C(N)=O)c(-c2cccc(OC(=O)NCCCCCCc3ccccc3)c2)s1	inactive

Test system: Rattus norvegicus
Assay: Analgesic activity in rat assessed as increase in paw withdrawal threshold at 10 mg/kg, po
Type: functional, organism-based
Parameters: dose 10 mg/kg
Conditions: not given

SMILES	Activity
C#CCCCCCCCCCNC(=O)Oc1cccc(-n2ccc(C(N)=O)c2)c1	inactive
NC(=O)c1ccn(-c2cccc(OC(=O)NCCCCCCc3ccccc3)c2)c1	inactive

Test system: Mus musculus
Assay: Toxicity against CD1 mouse assessed as limbic/striatal stereotypies at 10 mg/kg, po at 60 mins by Irwin test
Type: organism-based
Parameters: dose 10 mg/kg, route oral
Conditions: in vivo, 1 h

SMILES	Activity
C#CCCCCCCCCCNC(=O)Oc1cccc(-n2ccc(C(N)=O)c2)c1	Toxic
NC(=O)c1ccn(-c2cccc(OC(=O)NCCCCCCc3ccccc3)c2)c1	Toxic

Test system: Mus musculus
Assay: Anxiolytic activity in mouse at 10 mg/kg, po measured for 5 mins by elevated plus maze test
Type: organism-based
Parameters: dose 10 mg/kg, route oral
Conditions: in vivo

SMILES	Activity
C#CCCCCCCCCCNC(=O)Oc1cccc(-n2ccc(C(N)=O)c2)c1	Non-toxic
NC(=O)c1ccn(-c2cccc(OC(=O)NCCCCCCc3ccccc3)c2)c1	Non-toxic

Test system: Mus musculus
Assay: Toxicity against CD1 mouse assessed as limbic/striatal stereotypies at 100 mg/kg, po at 240 mins by Irwin test
Type: organism-based
Parameters: dose 100 mg/kg, route oral
Conditions: in vivo, 4 h

SMILES	Activity
C#CCCCCCCCCCNC(=O)Oc1cccc(-n2ccc(C(N)=O)c2)c1	Non-toxic
NC(=O)c1ccn(-c2cccc(OC(=O)NCCCCCCc3ccccc3)c2)c1	Toxic

Test system: Mus musculus
Assay: Toxicity against CD1 mouse assessed as limbic/striatal stereotypies at 30 mg/kg, po at 240 mins by Irwin test
Type: organism-based
Parameters: dose 30 mg/kg, route oral
Conditions: in vivo, 4 h

SMILES	Activity
C#CCCCCCCCCCNC(=O)Oc1cccc(-n2ccc(C(N)=O)c2)c1	Non-toxic
NC(=O)c1ccn(-c2cccc(OC(=O)NCCCCCCc3ccccc3)c2)c1	Toxic

Target: T3, Fatty-acid amide hydrolase 1 (Mus musculus, UniProt O08914)
T3 sequence (O08914 whole entry): T1 sequence (whole entry)
Assay: Inhibition of mouse FAAH isolated from brain homogenate using [3H-ethanolamine]AEA as substrate incubated for 20 mins prior to substrate addition measured after 15 mins by beta counting analysis
Conditions: not given

SMILES	IC50 [nM]	Ki [nM]
C#CCCCCCCCCCNC(=O)Oc1cccc(-n2ccc(C(N)=O)c2)c1	0.67	0.18
COc1cccc(-c2c(C(=O)NCCCCCc3ccccc3)cc(C)n2Cc2ccccc2)c1	> 50000	–
CCCCNC(=O)Oc1cccc(-c2oc(C)cc2C(N)=O)c1	530	140
NC(=O)c1ccn(-c2cccc(OC(=O)NC3CCCCC3)c2)c1	120	32
NC(=O)c1ccn(-c2cccc(OC(=O)NCCCCCCc3ccccc3)c2)c1	0.6	0.16
Cc1cc(C(N)=O)c(-c2cccc(OC(=O)NCCCCCCc3ccccc3)c2)s1	1.9	0.5

Test system: Mus musculus
Assay: Toxicity against CD1 mouse assessed as limbic/striatal stereotypies at 30 mg/kg, po at 60 mins by Irwin test
Type: organism-based
Parameters: dose 30 mg/kg, route oral
Conditions: in vivo, 1 h

SMILES	Activity
C#CCCCCCCCCCNC(=O)Oc1cccc(-n2ccc(C(N)=O)c2)c1	Toxic
NC(=O)c1ccn(-c2cccc(OC(=O)NCCCCCCc3ccccc3)c2)c1	Toxic

Target: Voltage-gated inwardly rectifying potassium channel KCNH2 (Homo sapiens, UniProt Q12809)
Assay: Inhibition of human ERG expressed in CHOK1 cells for 5 mins by automated patch clamp assay
Type: cell-based, CHO-K1
Conditions: not given

Chain of Voltage-gated inwardly rectifying potassium channel KCNH2 (Q12809 whole entry): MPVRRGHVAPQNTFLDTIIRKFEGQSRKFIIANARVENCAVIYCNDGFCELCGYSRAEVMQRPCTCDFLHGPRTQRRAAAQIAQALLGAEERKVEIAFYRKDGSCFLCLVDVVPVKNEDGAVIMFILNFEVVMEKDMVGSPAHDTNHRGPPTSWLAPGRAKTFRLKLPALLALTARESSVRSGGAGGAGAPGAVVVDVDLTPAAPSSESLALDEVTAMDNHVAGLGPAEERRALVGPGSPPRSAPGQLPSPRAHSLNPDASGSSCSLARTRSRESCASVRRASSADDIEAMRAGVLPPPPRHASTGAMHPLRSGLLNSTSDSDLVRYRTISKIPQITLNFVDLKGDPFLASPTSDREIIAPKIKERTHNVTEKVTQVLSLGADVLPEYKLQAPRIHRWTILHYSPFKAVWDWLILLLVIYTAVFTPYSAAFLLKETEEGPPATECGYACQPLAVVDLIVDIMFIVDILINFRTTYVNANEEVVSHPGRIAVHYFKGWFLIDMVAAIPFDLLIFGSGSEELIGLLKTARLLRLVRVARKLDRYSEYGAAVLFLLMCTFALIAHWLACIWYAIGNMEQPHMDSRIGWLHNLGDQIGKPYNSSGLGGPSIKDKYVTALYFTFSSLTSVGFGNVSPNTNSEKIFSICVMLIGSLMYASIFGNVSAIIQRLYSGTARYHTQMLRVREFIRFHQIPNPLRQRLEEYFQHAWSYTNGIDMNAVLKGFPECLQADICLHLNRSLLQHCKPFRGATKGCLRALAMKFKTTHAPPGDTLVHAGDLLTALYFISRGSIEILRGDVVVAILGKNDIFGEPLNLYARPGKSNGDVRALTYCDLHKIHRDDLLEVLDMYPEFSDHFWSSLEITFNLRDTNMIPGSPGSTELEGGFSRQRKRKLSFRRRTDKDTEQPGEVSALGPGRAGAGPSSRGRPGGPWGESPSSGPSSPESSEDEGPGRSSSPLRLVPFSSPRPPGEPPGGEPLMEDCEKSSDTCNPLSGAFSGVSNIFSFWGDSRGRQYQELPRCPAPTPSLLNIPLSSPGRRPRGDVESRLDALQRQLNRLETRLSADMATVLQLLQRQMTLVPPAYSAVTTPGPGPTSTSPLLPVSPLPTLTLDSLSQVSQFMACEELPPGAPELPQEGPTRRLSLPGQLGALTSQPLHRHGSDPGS

SMILES	IC50 [nM]
NC(=O)c1ccn(-c2cccc(OC(=O)NCCCCCCc3ccccc3)c2)c1	> 10000
Cc1cc(C(N)=O)c(-c2cccc(OC(=O)NCCCCCCc3ccccc3)c2)s1	> 10000

Target: T4, N-acyl-phosphatidylethanolamine-hydrolyzing phospholipase D (Mus musculus) (UniProt Q8BH82)
T4 sequence (whole entry): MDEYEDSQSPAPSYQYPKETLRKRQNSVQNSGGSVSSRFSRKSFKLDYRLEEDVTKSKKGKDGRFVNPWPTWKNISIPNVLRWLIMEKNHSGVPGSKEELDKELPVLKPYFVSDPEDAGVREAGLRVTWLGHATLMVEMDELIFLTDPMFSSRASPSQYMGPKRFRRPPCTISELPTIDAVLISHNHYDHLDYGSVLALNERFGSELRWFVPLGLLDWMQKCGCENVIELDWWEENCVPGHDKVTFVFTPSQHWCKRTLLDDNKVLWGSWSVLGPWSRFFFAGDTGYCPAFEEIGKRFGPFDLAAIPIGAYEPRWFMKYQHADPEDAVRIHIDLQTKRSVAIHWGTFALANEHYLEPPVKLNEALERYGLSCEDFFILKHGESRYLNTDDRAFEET
Assay: Inhibition of NAPE-PLD-meidated AEA synthesis in mouse brain homogenate using [3H]NArPE as substrate incubated for 20 mins prior to substrate addition
Type: tissue-based
Conditions: not given

SMILES	inhibition
C#CCCCCCCCCCNC(=O)Oc1cccc(-n2ccc(C(N)=O)c2)c1	inactive
NC(=O)c1ccn(-c2cccc(OC(=O)NCCCCCCc3ccccc3)c2)c1	inactive
Cc1cc(C(N)=O)c(-c2cccc(OC(=O)NCCCCCCc3ccccc3)c2)s1	inactive

Target: Transient receptor potential cation channel subfamily V member 1 (Mus musculus) (UniProt Q704Y3)
Assay: Displacement of [3H]RTX from TRPV1 receptor in mouse brain fraction
Type: tissue-based
Conditions: not given

Chain of Transient receptor potential cation channel subfamily V member 1 (Mus musculus) (Q704Y3 whole entry): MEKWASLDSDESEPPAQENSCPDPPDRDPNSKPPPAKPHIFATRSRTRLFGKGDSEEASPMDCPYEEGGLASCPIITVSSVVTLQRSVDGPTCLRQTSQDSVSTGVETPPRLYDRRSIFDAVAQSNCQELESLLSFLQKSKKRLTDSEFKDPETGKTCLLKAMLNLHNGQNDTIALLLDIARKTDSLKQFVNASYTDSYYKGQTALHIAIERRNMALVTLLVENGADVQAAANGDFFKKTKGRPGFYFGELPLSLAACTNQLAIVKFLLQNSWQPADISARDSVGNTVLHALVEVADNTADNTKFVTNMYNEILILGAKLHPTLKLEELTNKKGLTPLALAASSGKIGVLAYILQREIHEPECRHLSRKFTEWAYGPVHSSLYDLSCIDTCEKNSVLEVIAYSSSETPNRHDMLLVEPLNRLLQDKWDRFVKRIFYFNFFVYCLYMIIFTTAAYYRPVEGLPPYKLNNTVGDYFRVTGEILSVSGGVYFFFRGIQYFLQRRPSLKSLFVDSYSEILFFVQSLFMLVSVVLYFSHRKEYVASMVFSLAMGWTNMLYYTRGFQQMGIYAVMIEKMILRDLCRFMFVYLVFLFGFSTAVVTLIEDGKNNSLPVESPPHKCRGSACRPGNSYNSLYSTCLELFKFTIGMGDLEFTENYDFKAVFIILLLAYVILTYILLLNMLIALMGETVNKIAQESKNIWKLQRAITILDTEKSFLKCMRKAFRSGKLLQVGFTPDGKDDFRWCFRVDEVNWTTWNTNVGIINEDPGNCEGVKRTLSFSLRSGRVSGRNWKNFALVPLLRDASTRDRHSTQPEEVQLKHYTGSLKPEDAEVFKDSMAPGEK

SMILES	Activity
C#CCCCCCCCCCNC(=O)Oc1cccc(-n2ccc(C(N)=O)c2)c1	inactive
NC(=O)c1ccn(-c2cccc(OC(=O)NCCCCCCc3ccccc3)c2)c1	inactive
Cc1cc(C(N)=O)c(-c2cccc(OC(=O)NCCCCCCc3ccccc3)c2)s1	inactive

Target: T1, Fatty-acid amide hydrolase 1 (Mus musculus)
Assay: Reversible inhibition of mouse FAAH isolated from brain homogenate using [3H-ethanolamine]AEA as substrate incubated for 20 mins prior to substrate addition measured after 18 hrs by […] method
Conditions: not given

SMILES	inhibition
NC(=O)c1ccn(-c2cccc(OC(=O)NCCCCCCc3ccccc3)c2)c1	Active
Cc1cc(C(N)=O)c(-c2cccc(OC(=O)NCCCCCCc3ccccc3)c2)s1	Active

Test system: Rattus norvegicus
Assay: Analgesic activity in rat assessed as increase in paw withdrawal threshold at 30 mg/kg, po
Type: functional, organism-based
Parameters: dose 30 mg/kg
Conditions: not given

SMILES	Activity
C#CCCCCCCCCCNC(=O)Oc1cccc(-n2ccc(C(N)=O)c2)c1	Active
NC(=O)c1ccn(-c2cccc(OC(=O)NCCCCCCc3ccccc3)c2)c1	Active

Species on record: Mus musculus
Assay: Inhibition of DAGL-mediated 2AG synthesis in mouse brain homogenate using […] as substrate incubated for 20 mins prior to substrate addition
Type: tissue-based
Conditions: not given

SMILES	inhibition
C#CCCCCCCCCCNC(=O)Oc1cccc(-n2ccc(C(N)=O)c2)c1	inactive
NC(=O)c1ccn(-c2cccc(OC(=O)NCCCCCCc3ccccc3)c2)c1	inactive
Cc1cc(C(N)=O)c(-c2cccc(OC(=O)NCCCCCCc3ccccc3)c2)s1	inactive

Target: Cannabinoid receptor 2 (Mus musculus) (UniProt P47936)
Assay: Displacement of [3H]CP55.940 from CB2 receptor in mouse spleen fraction
Type: tissue-based
Conditions: not given

Chain of Cannabinoid receptor 2 (Mus musculus) (P47936 whole entry): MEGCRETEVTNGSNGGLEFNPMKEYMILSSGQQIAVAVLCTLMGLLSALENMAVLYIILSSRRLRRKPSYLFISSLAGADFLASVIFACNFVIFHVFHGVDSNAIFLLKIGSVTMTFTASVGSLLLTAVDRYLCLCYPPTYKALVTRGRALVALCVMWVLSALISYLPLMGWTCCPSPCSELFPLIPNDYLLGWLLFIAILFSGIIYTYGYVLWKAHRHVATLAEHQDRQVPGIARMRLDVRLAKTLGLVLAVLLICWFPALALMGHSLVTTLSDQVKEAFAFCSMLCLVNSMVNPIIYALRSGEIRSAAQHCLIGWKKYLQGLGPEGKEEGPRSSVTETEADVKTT

SMILES	Activity
C#CCCCCCCCCCNC(=O)Oc1cccc(-n2ccc(C(N)=O)c2)c1	inactive
NC(=O)c1ccn(-c2cccc(OC(=O)NCCCCCCc3ccccc3)c2)c1	inactive
Cc1cc(C(N)=O)c(-c2cccc(OC(=O)NCCCCCCc3ccccc3)c2)s1	inactive

Target: Cannabinoid receptor 1 (Mus musculus) (UniProt P47746)
Assay: Displacement of [3H]CP55.940 from CB1 receptor in mouse brain fraction
Type: tissue-based
Conditions: not given

Chain of Cannabinoid receptor 1 (Mus musculus) (P47746 whole entry): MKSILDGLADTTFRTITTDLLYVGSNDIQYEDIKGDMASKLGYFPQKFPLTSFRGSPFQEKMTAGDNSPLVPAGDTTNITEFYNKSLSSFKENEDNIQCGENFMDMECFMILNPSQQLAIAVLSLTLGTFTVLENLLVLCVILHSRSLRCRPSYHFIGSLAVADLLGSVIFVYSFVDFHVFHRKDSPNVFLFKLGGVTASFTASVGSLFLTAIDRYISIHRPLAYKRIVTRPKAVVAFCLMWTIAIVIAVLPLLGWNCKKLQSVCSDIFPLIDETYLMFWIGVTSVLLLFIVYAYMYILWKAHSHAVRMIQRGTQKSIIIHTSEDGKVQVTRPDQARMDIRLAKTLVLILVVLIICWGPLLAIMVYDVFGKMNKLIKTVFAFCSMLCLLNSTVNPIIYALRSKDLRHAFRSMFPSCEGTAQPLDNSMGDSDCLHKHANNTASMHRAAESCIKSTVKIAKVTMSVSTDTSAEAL

SMILES	Activity
C#CCCCCCCCCCNC(=O)Oc1cccc(-n2ccc(C(N)=O)c2)c1	inactive
NC(=O)c1ccn(-c2cccc(OC(=O)NCCCCCCc3ccccc3)c2)c1	inactive
Cc1cc(C(N)=O)c(-c2cccc(OC(=O)NCCCCCCc3ccccc3)c2)s1	inactive
